{
  "source": "ChEMBL document CHEMBL1201862",
  "about": "“PubChem BioAssay data set” (2004)",
  "key": {"[1]": {"biological_target": "Envelope glycoprotein gp160 (Human immunodeficiency virus 1, UniProt Q6QLK5)", "sequence (Q6QLK5 whole entry, the tested form may be a part)": "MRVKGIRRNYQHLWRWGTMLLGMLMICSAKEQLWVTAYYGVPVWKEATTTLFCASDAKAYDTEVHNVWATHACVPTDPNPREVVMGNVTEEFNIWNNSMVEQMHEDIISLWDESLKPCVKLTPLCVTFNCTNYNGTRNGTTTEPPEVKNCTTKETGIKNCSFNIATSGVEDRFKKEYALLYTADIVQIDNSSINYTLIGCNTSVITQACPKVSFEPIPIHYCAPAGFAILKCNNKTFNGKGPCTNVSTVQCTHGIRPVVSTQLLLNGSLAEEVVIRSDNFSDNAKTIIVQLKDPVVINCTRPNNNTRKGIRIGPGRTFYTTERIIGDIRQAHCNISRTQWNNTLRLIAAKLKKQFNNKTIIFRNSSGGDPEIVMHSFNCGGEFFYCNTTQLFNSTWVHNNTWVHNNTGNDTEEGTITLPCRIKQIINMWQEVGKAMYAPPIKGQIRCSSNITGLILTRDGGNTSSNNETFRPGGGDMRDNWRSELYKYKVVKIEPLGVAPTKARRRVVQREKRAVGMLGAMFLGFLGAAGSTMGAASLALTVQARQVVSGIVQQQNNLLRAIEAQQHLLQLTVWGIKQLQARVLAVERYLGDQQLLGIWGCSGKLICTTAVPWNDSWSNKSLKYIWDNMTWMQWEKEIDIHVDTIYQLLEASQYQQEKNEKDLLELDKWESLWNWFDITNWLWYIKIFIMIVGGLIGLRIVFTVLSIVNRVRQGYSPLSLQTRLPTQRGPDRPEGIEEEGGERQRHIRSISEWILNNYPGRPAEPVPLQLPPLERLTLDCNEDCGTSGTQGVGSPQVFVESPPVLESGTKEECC", "experiment": "cell-free HIV fusion peptide-binding blockers – biochemical, uHTS, fluorescence dequenching, […] (AID 1986)"}, "[2]": {"biological_target": "Induced myeloid leukemia cell differentiation protein Mcl-1 (Homo sapiens, UniProt Q07820)", "sequence (Q07820 whole entry)": "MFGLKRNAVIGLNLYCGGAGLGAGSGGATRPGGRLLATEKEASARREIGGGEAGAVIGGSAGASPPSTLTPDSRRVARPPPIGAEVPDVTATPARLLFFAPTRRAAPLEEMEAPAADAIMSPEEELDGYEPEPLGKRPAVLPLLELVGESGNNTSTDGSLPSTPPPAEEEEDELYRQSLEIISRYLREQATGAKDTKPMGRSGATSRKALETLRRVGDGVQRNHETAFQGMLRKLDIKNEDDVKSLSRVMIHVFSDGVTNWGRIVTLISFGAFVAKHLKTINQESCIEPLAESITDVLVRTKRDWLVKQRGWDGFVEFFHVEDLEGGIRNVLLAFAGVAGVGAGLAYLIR", "assay_type": "functional"}, "[3]": {"experiment": "viability loss in THP-1 monocytes – THP-1 cells, cytotoxicity control for Vif-APOBEC3G degradation inhibitor project, dose response (AID 1117359)", "assay_type": "functional", "conditions": "THP-1"}, "[4]": {"experiment": "non-PhoP GFP expression and growth suppression – purified and synthesized compounds, set 2, counter-screen for PhoP regulon inhibitor project, dose response (AID 2834)", "assay_type": "functional"}, "[5]": {"experiment": "reduction of Shn3 3'UTR-driven luciferase in osteoblasts – cell-based, Clone20 osteoblasts, firefly luciferase, cherry-picked, dose response (AID 624132);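 further: firefly luciferase luminescence from reporter carrying the Shn3 3'UTR in osteoblasts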", "assay_type": "functional"}, "[6]": {"experiment": "loss of viability in HepG2 cells – cell-based, CellTiter-Glo, cherry-picked, cytotoxicity control for Shn3 inhibitor project, dose response (AID 624134)", "assay_type": "functional"}, "[7]": {"experiment": "non-specific 3'UTR reporter inhibition in Clone20-Shn3RL – cell-based, Renilla luciferase, cherry-picked, counter-screen for Shn3 inhibitor project, dose response (AID 624133)", "assay_type": "functional"}, "[8]": {"biological_target": "Disintegrin and metalloproteinase domain-containing protein 17 (Homo sapiens, UniProt P78536)", "sequence (P78536 whole entry, the tested form may be a part)": "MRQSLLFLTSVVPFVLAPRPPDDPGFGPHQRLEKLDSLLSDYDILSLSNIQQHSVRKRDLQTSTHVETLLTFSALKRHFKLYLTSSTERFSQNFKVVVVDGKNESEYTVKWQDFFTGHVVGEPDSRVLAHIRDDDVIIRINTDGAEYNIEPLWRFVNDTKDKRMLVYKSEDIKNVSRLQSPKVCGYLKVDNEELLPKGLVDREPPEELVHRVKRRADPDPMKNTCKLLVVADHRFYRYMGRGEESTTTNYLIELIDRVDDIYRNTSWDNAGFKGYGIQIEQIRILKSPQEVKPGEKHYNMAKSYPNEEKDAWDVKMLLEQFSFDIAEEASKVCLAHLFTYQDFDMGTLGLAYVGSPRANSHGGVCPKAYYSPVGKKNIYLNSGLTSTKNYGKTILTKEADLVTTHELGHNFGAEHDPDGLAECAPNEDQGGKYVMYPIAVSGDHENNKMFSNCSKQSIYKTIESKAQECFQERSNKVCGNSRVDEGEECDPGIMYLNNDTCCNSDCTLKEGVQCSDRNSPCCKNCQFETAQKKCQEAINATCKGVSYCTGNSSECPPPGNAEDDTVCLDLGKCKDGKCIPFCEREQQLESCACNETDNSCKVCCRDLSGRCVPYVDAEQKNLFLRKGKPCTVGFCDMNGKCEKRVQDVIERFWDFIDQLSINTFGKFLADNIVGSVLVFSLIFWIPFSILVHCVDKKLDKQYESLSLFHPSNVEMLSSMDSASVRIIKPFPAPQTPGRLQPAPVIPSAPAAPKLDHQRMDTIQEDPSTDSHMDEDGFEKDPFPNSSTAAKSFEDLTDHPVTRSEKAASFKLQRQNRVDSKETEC", "experiment": "exosite inhibitors of ADAM17, dose response, biochemical (AID 743260)"}, "[9]": {"experiment": "inhibition of ADAM10 peptide cleavage – biochemical, FRET peptide substrate, recombinant human ADAM10, selectivity assay for ADAM17 exosite inhibitor project, dose response (AID 743259);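 further: ADAM10 enzyme cleaving a FRET peptide substrate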"}, "HEK293": {"tested_on": "HEK293", "experiment": "Fluorescence-based counterscreen for potentiators or agonists of NPY-Y2: cell-based high-throughput dose response assay to identify inhibitors of cyclic nucleotide gated ion channel (CNGC) activity. In this assay, the parental HEK293 cell line transfected with a cyclic-nucleotide gated ion channel (CNGC)-based cAMP sensor is used to measure inhibition of isoproterenol-induced CNGC activity by test compound.", "assay_type": "functional", "conditions": "Homo sapiens"}, "[10]": {"biological_target": "T1, Neuropeptide Y receptor type 2 (Homo sapiens, UniProt P49146)", "T1 sequence (P49146 whole entry)": "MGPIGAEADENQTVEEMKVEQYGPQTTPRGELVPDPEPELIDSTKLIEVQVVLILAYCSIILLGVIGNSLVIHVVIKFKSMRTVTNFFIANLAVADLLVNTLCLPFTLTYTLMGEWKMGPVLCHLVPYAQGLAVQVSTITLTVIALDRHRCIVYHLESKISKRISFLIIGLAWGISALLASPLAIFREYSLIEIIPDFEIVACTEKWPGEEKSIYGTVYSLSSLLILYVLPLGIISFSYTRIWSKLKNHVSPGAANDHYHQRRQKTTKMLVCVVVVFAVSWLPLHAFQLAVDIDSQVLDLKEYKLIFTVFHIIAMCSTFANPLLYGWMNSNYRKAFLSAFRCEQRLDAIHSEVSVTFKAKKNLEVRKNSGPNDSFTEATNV", "experiment": "Fluorescence-based cell-based high-throughput dose response assay for agonists of NPY-Y2. [Related pubchem assays: 1703 (Screening assay (CNGC inhibitors).), 1359 (Screening assay (NPY-Y2 potentiators or agonists).), 1304 (Screening assay (NPY-Y1 potentiators or agonists).), 1710 (Screening assay (NPY-Y2 agonists).), 1791 (Summary AID.)]", "assay_type": "functional"}, "[11]": {"biological_target": "T2, Neuropeptide Y receptor type 1 (Homo sapiens, UniProt P25929)", "T2 sequence (P25929 whole entry)": "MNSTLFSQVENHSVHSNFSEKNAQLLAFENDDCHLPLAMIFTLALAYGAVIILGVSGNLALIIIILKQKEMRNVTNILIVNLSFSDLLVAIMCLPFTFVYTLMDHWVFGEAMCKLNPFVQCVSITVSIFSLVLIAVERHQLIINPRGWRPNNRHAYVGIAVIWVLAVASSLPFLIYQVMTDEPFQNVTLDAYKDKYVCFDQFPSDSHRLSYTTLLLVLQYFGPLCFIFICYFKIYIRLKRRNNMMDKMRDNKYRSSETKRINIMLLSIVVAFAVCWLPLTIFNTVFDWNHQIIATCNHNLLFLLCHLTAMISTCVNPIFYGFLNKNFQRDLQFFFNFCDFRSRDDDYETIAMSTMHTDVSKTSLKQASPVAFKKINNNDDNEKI", "experiment": "Fluorescence-based counterscreen for agonists of NPY-Y2: cell-based high-throughput dose response assay for agonists of NPY-Y1.", "assay_type": "functional"}, "[12]": {"biological_target": "Cyclin-dependent kinase 5/CDK5 activator 1 (Homo sapiens, UniProt Q00535)", "sequence (Q00535 whole entry)": "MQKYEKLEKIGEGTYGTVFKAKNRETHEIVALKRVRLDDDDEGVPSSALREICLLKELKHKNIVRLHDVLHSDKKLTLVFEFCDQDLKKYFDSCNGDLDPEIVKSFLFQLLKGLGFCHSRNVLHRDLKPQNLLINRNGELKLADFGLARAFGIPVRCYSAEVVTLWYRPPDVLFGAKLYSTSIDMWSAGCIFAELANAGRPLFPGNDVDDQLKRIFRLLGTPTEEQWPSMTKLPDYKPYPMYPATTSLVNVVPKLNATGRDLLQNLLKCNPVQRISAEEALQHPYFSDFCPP", "sequence (Q15078 whole entry, further chain)": "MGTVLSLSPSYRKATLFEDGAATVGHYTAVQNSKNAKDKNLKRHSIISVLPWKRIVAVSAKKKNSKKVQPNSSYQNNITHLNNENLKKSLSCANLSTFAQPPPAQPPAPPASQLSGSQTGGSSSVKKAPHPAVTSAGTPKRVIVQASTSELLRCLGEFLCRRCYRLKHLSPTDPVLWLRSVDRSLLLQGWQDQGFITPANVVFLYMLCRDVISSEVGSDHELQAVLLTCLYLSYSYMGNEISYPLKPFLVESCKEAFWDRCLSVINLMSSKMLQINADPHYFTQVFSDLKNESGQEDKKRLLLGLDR", "experiment": "blockade of human CDK5 activity – biochemical, cherry-picked samples, set 2, dose response (AID 504545)"}, "Galanin receptor type 3": {"biological_target": "T3, Galanin receptor type 3 (Homo sapiens, UniProt O60755)", "T3 sequence (O60755 whole entry)": "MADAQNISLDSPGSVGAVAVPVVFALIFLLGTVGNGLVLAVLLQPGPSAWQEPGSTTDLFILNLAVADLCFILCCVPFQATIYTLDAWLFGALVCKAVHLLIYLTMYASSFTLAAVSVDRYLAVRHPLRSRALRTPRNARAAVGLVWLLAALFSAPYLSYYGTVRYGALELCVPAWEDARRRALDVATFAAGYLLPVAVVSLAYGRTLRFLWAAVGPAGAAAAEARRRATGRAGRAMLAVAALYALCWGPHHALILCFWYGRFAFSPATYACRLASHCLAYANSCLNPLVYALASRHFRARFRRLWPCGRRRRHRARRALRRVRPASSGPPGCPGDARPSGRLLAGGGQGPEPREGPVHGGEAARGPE", "experiment": "Fluorescence-based cell-based primary high throughput dose response assay to identify antagonists of the Galanin Receptor 3 (GalR3).", "assay_type": "functional"}, "cells": {"experiment": "cells", "assay_type": "functional, cell-based", "conditions": "HEK-CNG"}},
  "note": "Activity calls are given as the source filed them.",
  "data": [
    {"smiles": "O=C(O)C[C@@H]1C(=O)O[C@@H]2C(COC(=O)c3cc(O)c(O)c(O)c3)O[C@@H](OC(=O)c3cc(O)c(O)c(O)c3)[C@@H](OC(=O)c3cc(O)c(O)c4c3[C@H]1[C@H](O)C(=O)O4)[C@H]2OC(=O)c1cc(O)c(O)c(O)c1", "note": "(stereo not given in full)", "values": [
      {"measurement": "IC50", "setting": "[1]", "result": "11.2 µM (active)"},
      {"measurement": "IC50", "setting": "[2]", "result": "1.52 µM (active)"},
      {"measurement": "CC50", "setting": "[3]", "result": "> 40 µM (active)"}
    ]},
    {"smiles": "S=C(NCc1ccc(Cl)cc1)Nc1ccncc1", "values": [
      {"measurement": "IC50", "setting": "[4]", "result": "> 125 µM (active)"},
      {"measurement": "AC50", "setting": "[5]", "result": "1.5 µM (active)"},
      {"measurement": "AC50", "setting": "[6]", "result": "22.1 µM (active)"},
      {"measurement": "AC50", "setting": "[7]", "result": "> 70 µM (inactive)"},
      {"measurement": "IC50", "setting": "[8]", "result": "> 69.6 µM (inactive)"},
      {"measurement": "IC50", "setting": "[9]", "result": "> 69.6 µM (inactive)"}
    ]},
    {"smiles": "CCCc1cc(-c2[nH]ncc2-c2ccc(C(=O)OCC)o2)c(O)cc1O", "values": [
      {"measurement": "EC50", "setting": "HEK293", "result": "> 35.4 µM (not active)"},
      {"measurement": "EC50", "setting": "[10]", "result": "> 35.4 µM (not active)"},
      {"measurement": "EC50", "setting": "[11]", "result": "18.5 µM (not active)"},
      {"measurement": "AC50", "setting": "[12]", "result": "10 µM (active)"},
      {"measurement": "IC50", "setting": "Galanin receptor type 3", "result": "12.8 µM (inactive)"},
      {"measurement": "EC50", "setting": "cells", "result": "> 29.9 µM (inactive)"}
    ]}
  ]
}
